According to patent publication US9365604B2, “Oligomer-nucleoside phosphate conjugates” (NEKTAR THERAPEUTICS, priority 2007, dated 2016):
Where two headings read alike, the source gives them in different places.

How the values were obtained:
DU145 = experiment: Sulforhodamine B (SRB) growth inhibition assay; assay type: cell-based, Human; details: SRB assay
Protocol: (§1) The aim was to determine the GI50 values for PEG-floxuridine conjugates against a panel of cell lines, and based on previous data from Xenograft studies. […] The test articles were solubilized in dimethylsulfoxide and were tested at four different molar (M) concentrations; 10^−4, 10^−5, 10^−6, M. GI50 (the concentration needed to reduce the growth of treated cells to half that of untreated control cells) was calculated for each condition ([(Ti−Tz)/(C-Tz)]×100=50, where Ti, Tz, and C refer to absorbance values obtained from each tested concentration, time zero, and control treatment, respectively).
as §1, with “The objective” for “The aim”, “the IC50” for “the GI50”, “for PEG-gemcitabine” for “for PEG-floxuridine”, “in dimethyl sulfoxide” for “in dimethylsulfoxide”, “10^−6, 10^−7” for “10^−6,”, “condition ([(Ti−Tz)/(C−Tz)]×100=50,” for “condition ([(Ti−Tz)/(C-Tz)]×100=50,”

NCI/ADR-RES = experiment: Sulforhodamine B (SRB) growth inhibition assay; assay type: cell-based, Human
Protocol: In Vitro Screening of PEG-Gemcitabine Monophosphate in Selected Human Cancer Cell Lines
(§2) The aim was to determine the GI50 values for PEG-floxuridine conjugates against a panel of cell lines, and based on previous data from Xenograft studies. The cells were exposed for 24 h, and cell viability assessed by using the Sulphorhodamine (SRB) assay. The test articles were solubilized in dimethylsulfoxide and were tested at four different molar (M) concentrations; 10^−4, 10^−5, 10^−6, M. GI50 (the concentration needed to reduce the growth of treated cells to half that of untreated control cells) was calculated for each condition ([(Ti−Tz)/(C-Tz)]×100=50, where Ti, Tz, and C refer to absorbance values obtained from each tested concentration, time zero, and control treatment, respectively).
as §2, with “The objective” for “The aim”, “the IC50” for “the GI50”, “for PEG-gemcitabine” for “for PEG-floxuridine”, “in dimethyl sulfoxide” for “in dimethylsulfoxide”, “10^−6, 10^−7” for “10^−6,”, “condition ([(Ti−Tz)/(C−Tz)]×100=50,” for “condition ([(Ti−Tz)/(C-Tz)]×100=50,”

HCT-116 = experiment: In vitro cytotoxicity assay (CellTiter-Glo); assay type: cell-based; details: for IC50: 72 h exposure, CellTiter-Glo
Protocol: (§3) The objective of these studies were to determine the IC50 values for PEG-floxuridine conjugates against floxuridine-resistant cell lines based on data from previous Xenograft studies. The cells were exposed for 72 h, and cell viability assessed by using the CellTiter-Glo assay.
(§4) The objective of these studies was to determine the IC50 values for PEG-gemcitabine conjugates against gemcitabine-resistant cell lines based on data from previous Xenograft studies. The cells were exposed for 72 h, and cell viability assessed by using the CellTiter-Glo assay.

HT-29 = experiment: In vitro cytotoxicity assay (CellTiter-Glo); assay type: cell-based; details: for IC50: 72 h exposure, CellTiter-Glo
Protocol: as §3, §4

MIA PaCa-2 = experiment: In vitro cytotoxicity assay (CellTiter-Glo); assay type: cell-based; details: for IC50: 72 h exposure, CellTiter-Glo
Protocol: as §3, §4

CAKI-1 = experiment: In vitro cytotoxicity assay (CellTiter-Glo); assay type: cell-based; details: for IC50: 72 h exposure, CellTiter-Glo
AS283 = experiment: In vitro cytotoxicity assay (CellTiter-Glo); assay type: cell-based; details: for IC50: 72 h exposure, CellTiter-Glo
Protocol: as §4

CCRF-CEM = experiment: In vitro cytotoxicity assay (CellTiter-Glo); assay type: cell-based; details: for IC50: 72 h exposure, CellTiter-Glo
Protocol: as §4

DLD-1 = experiment: In vitro cytotoxicity assay (CellTiter-Glo); assay type: cell-based; details: for IC50: 72 h exposure, CellTiter-Glo
Protocol: as §4

HL-60 = experiment: In vitro cytotoxicity assay (CellTiter-Glo); assay type: cell-based; details: for IC50: 72 h exposure, CellTiter-Glo
Protocol: as §4

K-562 = experiment: In vitro cytotoxicity assay (CellTiter-Glo); assay type: cell-based; details: for IC50: 72 h exposure, CellTiter-Glo
Protocol: as §4

NCI-H23 = experiment: In vitro cytotoxicity assay (CellTiter-Glo); assay type: cell-based; details: for IC50: 72 h exposure, CellTiter-Glo
Protocol: as §4

NCI-H460 = experiment: In vitro cytotoxicity assay (CellTiter-Glo); assay type: cell-based; details: for IC50: 72 h exposure, CellTiter-Glo
Protocol: as §4

NCI-H522 = experiment: In vitro cytotoxicity assay (CellTiter-Glo); assay type: cell-based; details: for IC50: 72 h exposure, CellTiter-Glo
Protocol: as §4

RL = experiment: In vitro cytotoxicity assay (CellTiter-Glo); assay type: cell-based; details: for IC50: 72 h exposure, CellTiter-Glo
Protocol: as §4

SW-620 = experiment: In vitro cytotoxicity assay (CellTiter-Glo); assay type: cell-based; details: for IC50: 72 h exposure, CellTiter-Glo
Protocol: as §4

PANC-1 = experiment: In vitro cytotoxicity assay (CellTiter-Glo); assay type: cell-based; details: 72 h exposure
Protocol: as §4
The PEG-gemcitabine derivatives and gemcitabine inhibited the growth of most of the cell lines with IC50 values from the nM to low μM range, except for PANC-1 cells. Like the previous study, some of the IC50 values should be interpreted carefully because the concentration range tested was not centered around the IC50. […] The PANC-1 pancreatic cell line, in contrast to BxPC-3, Capan-1, or MIA-PaCa-2, has been shown previously to be resistant in vitro to gemcitabine, and 4′-thio-FAC, a deoxycytidine sulfur- and fluoro-substituted analog (Zajchowski et al., (2005). Int J Cancer. 114(6), 1002-9).

[1] = on a mM basis
Protocol: Cells were inoculated into 24-well microtiter plates in 100 μL at 5×10^3 cells/well, in duplicate. After 24 h, test articles were added to the cells for 24 or 48 h, after which time the supernatant from each of the wells was collected and stored below −15° C. until LC/MS analysis.

MDCK cells = experiment: Bi-directional permeability in MDCK cells
Excerpt: (§5) Bi-Directional Permeability of PEG-Floxuridine Conjugates in Caco-2 and MDCK Cells

Caco-2 cells = experiment: Bi-directional permeability in Caco-2 cells
Excerpt: as §5

[2] = 48 h drug exposure, read-out: GI50 (molar concentration) in Cell Line DU145
[3] = cells exposed for 24 h, read-out: GI50 values (μM) DU145
[4] = cells exposed for 24 h, read-out: GI50 values (μM) NCI/ADR-RES

COCCOCCOCCOCCOCCOCCOCCOP(=O)(O)OC[C@H]1O[C@@H](n2ccc(N)nc2=O)C(F)(F)[C@@H]1O.Cl [Gemcitabine Mono (mPEG7), 5′-gemcitabine methoxy hepta(ethylene glycol) phosphate hydrochloride]
GI50 (DU145; [2]): < 0.1 µM | GI50 (DU145; [3]): < 0.1 µM | GI50 (NCI/ADR-RES; 48 h drug exposure, read-out: GI50 (molar concentration) in Cell Line NCI/ADR-RES): 2 µM | GI50 (NCI/ADR-RES; [4]): 2 µM | Ratio vs gem (IC50) HCT-116 (HCT-116): 2 | IC50 (HCT-116): 4 nM | Ratio vs gem (IC50) HT-29 (HT-29): 56 | IC50 (HT-29): 6250 nM | Ratio vs gem (IC50) MIA PaCa-2 (MIA PaCa-2): 3 | IC50 (MIA PaCa-2): 84 nM | Ratio vs gem (IC50) CAKI-1 (CAKI-1): 6 | IC50 (CAKI-1): 50 nM | Ratio vs gem (IC50) AS283 (AS283): 3 | IC50 (AS283): 398 nM | Ratio vs gem (IC50) CCRF-CEM (CCRF-CEM): 1 | IC50 (CCRF-CEM): 10 nM | Ratio vs gem (IC50) DLD-1 (DLD-1): 2 | IC50 (DLD-1): 36 nM | Ratio vs gem (IC50) HL-60 (HL-60): 2 | IC50 (HL-60): 2.6 nM | Ratio vs gem (IC50) K-562 (K-562): 2 | IC50 (K-562): 1150 nM | Ratio vs gem (IC50) NCI-H23 (NCI-H23): 7 | IC50 (NCI-H23): 47 nM | Ratio vs gem (IC50) NCI-H460 (NCI-H460): 3 | IC50 (NCI-H460): 48 nM | Ratio vs gem (IC50) NCI-H522 (NCI-H522): 6 | IC50 (NCI-H522): 26 nM | Ratio vs gem (IC50) RL (RL): 1 | IC50 (RL): 259 nM | Ratio vs gem (IC50) SW-620 (SW-620): 4 | IC50 (SW-620): 182 nM | IC50 (PANC-1): > 1e+06 nM | remains after 24 and 48 h [1]: approximately 80% | Papp A -> B (MDCK cells): <0.06 10^−6 cm/s | Papp B -> A (MDCK cells): <0.08 10^−6 cm/s | Significant efflux (MDCK cells): No | percent recovery A -> B (MDCK cells): 94% | percent recovery B -> A (MDCK cells): 96% | Papp A -> B (Caco-2 cells): <0.06 10^−6 cm/s | Papp B -> A (Caco-2 cells): <0.08 10^−6 cm/s | Significant efflux (Caco-2 cells): No | percent recovery A -> B (Caco-2 cells): 74% | percent recovery B -> A (Caco-2 cells): 86%

COCCOCCOCCOP(=O)(O)OC[C@H]1O[C@@H](n2ccc(N)nc2=O)C(F)(F)[C@@H]1O.Cl [Gemcitabine Mono (mPEG3), 5′-gemcitabine methoxy tri(ethylene glycol) phosphate hydrochloride]
GI50 (DU145; [2]): < 0.1 µM | GI50 (DU145; [3]): < 0.1 µM | GI50 (NCI/ADR-RES; [4]): 1.7 µM | Ratio vs gem (IC50) HCT-116 (HCT-116): 2 | IC50 (HCT-116): 2.9 nM | Ratio vs gem (IC50) HT-29 (HT-29): 7 | IC50 (HT-29): 755 nM | Ratio vs gem (IC50) MIA PaCa-2 (MIA PaCa-2): 3 | IC50 (MIA PaCa-2): 76 nM | Ratio vs gem (IC50) CAKI-1 (CAKI-1): 3 | IC50 (CAKI-1): 21 nM | Ratio vs gem (IC50) AS283 (AS283): 3 | IC50 (AS283): 408 nM | Ratio vs gem (IC50) CCRF-CEM (CCRF-CEM): 1 | IC50 (CCRF-CEM): 6.5 nM | Ratio vs gem (IC50) DLD-1 (DLD-1): 4 | IC50 (DLD-1): 93 nM | Ratio vs gem (IC50) HL-60 (HL-60): 1 | IC50 (HL-60): 2 nM | Ratio vs gem (IC50) K-562 (K-562): 1 | IC50 (K-562): 914 nM | Ratio vs gem (IC50) NCI-H23 (NCI-H23): 3 | IC50 (NCI-H23): 18 nM | Ratio vs gem (IC50) NCI-H460 (NCI-H460): 3 | IC50 (NCI-H460): 43 nM | Ratio vs gem (IC50) NCI-H522 (NCI-H522): 8 | IC50 (NCI-H522): 36 nM | Ratio vs gem (IC50) RL (RL): 2 | IC50 (RL): 568 nM | Ratio vs gem (IC50) SW-620 (SW-620): 2 | IC50 (SW-620): 95 nM | IC50 (PANC-1): > 1e+06 nM | remains after 24 and 48 h [1]: approximately 80% | Papp A -> B (MDCK cells): <0.06 10^−6 cm/s | Papp B -> A (MDCK cells): <0.08 10^−6 cm/s | Significant efflux (MDCK cells): No | percent recovery A -> B (MDCK cells): 91% | percent recovery B -> A (MDCK cells): 96% | Papp A -> B (Caco-2 cells): <0.06 10^−6 cm/s | Papp B -> A (Caco-2 cells): <0.08 10^−6 cm/s | Significant efflux (Caco-2 cells): No | percent recovery A -> B (Caco-2 cells): 78% | percent recovery B -> A (Caco-2 cells): 90%
